From US9730445B2, “Herbicidal compositions comprising 4-amino-3-chloro-5-fluoro-6-(4-chloro-2-fluoro-3-methoxyphenyl) pyridine-2-carboxylic acid or a derivative thereof and fungicides” (DOW AGROSCIENCES LLC, priority 2013, dated 2017)
“And” between values parts separate entries of the source, which are not always exact repeats. Equal values may be shown once.

Tests used:
CYPIR = assay: Postemergence foliar-applied weed control, direct-seeded rice (greenhouse); format: in vivo, Cyperus iria L. (rice flatsedge); details: 21 DAA
LEFCH = assay: In-water applied weed control, transplanted paddy rice (greenhouse); format: in vivo, Leptochloa chinensis (L.) Nees (Chinese sprangletop)
Description: Weed seeds or nutlets of the desired test plant species were planted in puddled soil (mud) prepared by mixing a shredded, non-sterilized mineral soil (50.5 percent silt, 25.5 percent clay, and 24 percent sand, with a pH of about 7.6 and an organic matter content of about 2.9 percent) and water at a 1:1 volumetric ratio. The prepared mud was dispensed in 365 mL aliquots into 16-ounce (oz.) non-perforated plastic pots with a surface area of 86.59 square centimeters (cm^2) leaving a headspace of 3 centimeters (cm) in each pot. Rice seeds were planted in Sun Gro MetroMix® 306 planting mixture, which typically has a pH of 6.0 to 6.8 and an organic matter content of about 30 percent, in plastic plug trays. Seedlings at the second or third leaf stage of growth were transplanted into 860 mL of mud contained in 32-oz. non-perforated plastic pots with a surface area of 86.59 cm^2 4 days prior to herbicide application. The paddy was created by filling the headspace of the pots with 2.5 to 3 cm of water. When required to ensure good germination and healthy plants, a fungicide treatment and/or other chemical or physical treatment was applied. The plants were grown for 4-22 days in a greenhouse with an approximate 14 hour (h) photoperiod which was maintained at about 29° C. during the day and about 26° C. during the night. Nutrients were added as Osmocote® (17:6:10, N:P:K+minor nutrients) at 2 g per cup. Water was added on a regular basis to maintain the paddy flood, and supplemental lighting was provided with overhead metal halide 1000-Watt lamps as necessary. The plants were employed for testing when they reached the first through fourth true leaf stage. […]
Treatment requirements for each compound or fungicidal component were calculated based upon the rates being tested, the concentration of active ingredient or acid equivalent in the formulation, an application volume of 2 mL per component per pot, and an application area of 86.59 cm^2 per pot.
For formulated compounds, a measured amount was placed in an individual 100 or 200 mL glass vial and was dissolved in a volume of 1.25% (v/v) Agri-Dex® crop oil concentrate to obtain application solutions. […]
The treated plants and control plants were placed in a greenhouse as described above and water was added as needed to maintain a paddy flood. After approximately 3 weeks the condition of the test plants as compared with that of the untreated plants was determined visually and scored on a scale of 0 to 100 percent where 0 corresponds to no injury or growth inhibition and 100 corresponds to complete kill. […]

SMILES: COc1c(Cl)ccc(-c2nc(C(=O)OCc3ccccc3)c(Cl)c(N)c2F)c1F [Compound A Benzyl Ester]
- Visual Weed Control (%) - 21 DAA CYPIR Obs (CYPIR; r23-24 ester 16/32 g ae/ha alone, r25 pyroquilon 925 g ai/ha alone, r26-27 ester 16/32 + 925): 85% and 99%
- Visual Weed Control (%) - 21 DAA CYPIR Obs (CYPIR; r26-27 ester 16/32 g ae/ha alone, r28-29 isoprothiolane 266/533 g ai/ha alone, r30-33 ester 16/32 at each of 266, 533): 85% and 99%
- Visual Weed Control (%)—21 DAA CYPIR Obs (CYPIR; r29-30 ester 8/16 g ae/ha alone, r31-33 kasugamycin 17.5/35/70 g ai/ha alone, r34-39 ester 8/16 at each of 17.5, 35, 70): 50% and 70%
- Visual Weed Control (%)—21 DAA CYPIR Obs (CYPIR; r45 ester 8 g ae/ha alone, r46-48 hexaconazole 25/50/100 g ai/ha alone, r49-51 ester 8 + 25/50/100): 35%
- Visual Weed Control (%) - 19 DAA LEFCH Obs (LEFCH; Compound A Benzyl Ester 8 g ae/ha): 3%
- Visual Weed Control (%) - 19 DAA LEFCH Obs (LEFCH; Compound A Benzyl Ester 16 g ae/ha): 8%
